{"source": "patent US10869879B2", "about": "“Combinations to treat cancer” (EVOL SCIENCE LLC, priority 2017, dated 2020)", "key": {"[1]": {"tested_on": "pancreatic cancer cells (BxPC3M1, BxPC3, Panc1, MiaPaca2)", "format": "cell-based", "conditions": "vemurafenib 10 μM versus DMSO, all 4 cell lines, n=3"}, "[2]": {"tested_on": "BxPC3M1, BxPC3, Panc1, and MiaPaca2", "assay": "Cell proliferation assay", "format": "cell-based", "conditions": "vemurafenib 10 μM, all 4 cell lines (WT BRAF)", "method": "FIG. 9A, FIG. 9B, FIG. 9C, FIG. 9D, FIG. 9E, FIG. 9F, FIG. 9G and FIG. 9H illustrate vemurafenib induced cell proliferation and serine synthesis in pancreatic cancer cell lines. FIG. 9A: Cell proliferation assay of BxPC3 cells treated with vemurafenib (10 μM). 100000 cells plated on day 0. FIG. 9B: Cell proliferation assay of BxPC3M1 cells treated with vemurafenib (10 μM). 100000 cells plated on day 0. FIG. 9C: Cell proliferation assay of Panc1 cells treated with vemurafenib (10 μM). 100000 cells plated on day 0. FIG. 9D: Cell proliferation assay of MiaPaca2 cells treated with vemurafenib (10 μM). 100000 cells plated on day 0. FIG. 9E: Mass spectrometry: PHGDH protein expression in pancreatic cancer cells treated with DMSO or vemurafenib (10 μM) (n=3). FIG. 9F: Mass spectrometry: PSAT1 protein expression in pancreatic cancer cells treated with DMSO or vemurafenib (10 μM) (n=3). FIG. 9G: Mass spectrometry: PSPH protein expression in pancreatic cancer cells treated with DMSO or vemurafenib (10 μM) (n=3). FIG. 9H: Mass spectrometry: SARS protein expression in pancreatic cancer cells treated with DMSO or vemurafenib (10 μM) (n=3).\nNext, we tested the effect of vemurafenib treatment on pancreatic cancer cell proliferation. All 4 of the cell lines (BxPC3M1, BxPC3, Panc1, and MiaPaca2) tested express WT BRAF. […]"}, "[3]": {"tested_on": "SK-MEL-28 cells", "assay": "Colony formation assay", "format": "cell-based", "conditions": "Homo sapiens, parental cell line, FIG. 4B, read-out: IC50 of vemurafenib, colony formation", "method": "(§1) For colony formation assays, 400 cells per well were seeded into 24-well plates on day 0. Cells were treated with DMSO or gemcitabine at various doses on day 1 for 24 hours. Gemcitabine was washed out on day 2, vemurafenib, dabrafenib, and methotrexate was added. On day 4, drugs added on day 2 was washed out. Cells were allowed to grow for a subsequent 7 days before being fixed (10% methanol+10% acetic acid) and stained with crystal violet (0.4% in 20% ethanol) for quantitation as previously described.\nAll proteomic trend plots were constructed using the Evol Science suite (ES). Volcano plotting serves to visually separate data points in two axes by both their expression ratio and their statistical significance. This enables a simple method of determining the most significant, differentially expressed proteins within a given comparison. For each protein, replicate values are gathered from each experiment to be compared to create two distributions of values. Student's T-Test of identical mean is used between the two independent samples of values to compare the distributions and generate a p-value of statistical significance. The −log 10 of the p-value is then taken to provide the Y coordinate, in graphical view. The X coordinate, Ratio, is given by the log 10 of the average of replicate ratio values for a given experiment. […]"}, "[4]": {"tested_on": "SK-MEL-28VR1 cells", "assay": "Colony formation assay", "format": "cell-based, human", "conditions": "for cell death with serine depletion: glucose, and glycine depleted media, not with complete media", "method": "as §1\n(§2) All proteomic trend plots were constructed using the Evol Science suite (ES). Volcano plotting serves to visually separate data points in two axes by both their expression ratio and their statistical significance. This enables a simple method of determining the most significant, differentially expressed proteins within a given comparison. For each protein, replicate values are gathered from each experiment to be compared to create two distributions of values. Student's T-Test of identical mean is used between the two independent samples of values to compare the distributions and generate a p-value of statistical significance. The −log 10 of the p-value is then taken to provide the Y coordinate, in graphical view. The X coordinate, Ratio, is given by the log 10 of the average of replicate ratio values for a given experiment. Combination Index calculations, Fa-CI plots, and isobolograms were constructed using the Compusyn software program using the Chou-Tulalay method. All plots representing colony formation assays were constructed using the Prism7 software (Graphpad.com). Two-way Anova tests were used to calculate p values."}, "[5]": {"tested_on": "BxPC3M1 cells", "assay": "Colony formation assay", "format": "cell-based, human", "conditions": "vemurafenib 5 μM, glucose, and glycine depleted media, not with complete media", "method": "as §1, §2"}, "[6]": {"tested_on": "SK-MEL-28VR1 cells", "assay": "Mass spectrometry, FAM129B protein abundance", "format": "cell-based, human", "conditions": "FIG. 5A, n=3", "method": "(§3) FIG. 5A and FIG. 5B illustrate a characterization of SK-MEL-28VR1 cells. FIG. 5A: Unbiased Mass spectrometry: FAM129B protein abundance following differential treatments of SK-MEL-28 and SK-MEL-28VR1 cells (n=3). FIG. 5B: illustrates a characterization of SK-MEL-28VR1 cells. Western blot of PHGDH protein expression in differentially treated SK-MEL-28 and SK-MEL-28VR1 cells. Alpha tubulin used as loading control. 50 μg of protein loaded in each lane.\n(§4) Samples were dried down and re-dissolved in 2.5% ACN/0.1% formic acid for liquid chromatography-tandem mass spectrometry (LC-MS/MS) analysis carried out on a Q-Exactive HF (Thermo Fisher Scientific) coupled with a U3000 RSLCnano HPLC device (Thermo Fisher Scientific). 5 μL of sample were loaded onto a C18 trap column (PepMap100; 300-μm i.d.×5 mm, 5-μm particle size, 100 Å; Thermo Fisher Scientific) at a flow rate of 10 μL min^−1. […] The runs were analyzed using Progenesis-QI for Proteomics (Nonlinear dynamics). […] The peptide and protein quantification used a synthetic control peptide for normalization across the samples. […]"}, "[7]": {"tested_on": "SK-MEL-28VR1 vs SK-MEL-28 cells", "conditions": "vemurafenib treatment, SK-MEL-28VR1 compared to parental SK-MEL-28"}, "[8]": {"tested_on": "SK-MEL-28 cells", "assay": "Mass spectrometry, FAM129B protein abundance", "format": "cell-based", "conditions": "parental SK-MEL-28 cells", "method": "as §3, §4"}}}
{"molecule": "CCCS(=O)(=O)Nc1ccc(F)c(C(=O)c2c[nH]c3ncc(-c4ccc(Cl)cc4)cc23)c1F", "note": "[vemurafenib, Vemurafenib]", "values": [{"measurement": "PHGDH, PSAT1, PSPH, and SARS protein abundance", "setting": "[1]", "result": "increased"}, {"measurement": "cell proliferation under vemurafenib treatment", "setting": "[2]", "result": "increased proliferation"}, {"measurement": "IC50", "setting": "[3]", "result": "~1", "unit": "µM"}, {"measurement": "IC50", "setting": "[4]; Homo sapiens, data not shown, read-out: IC50 of vemurafenib, colony formation", "result": "~30", "unit": "µM"}, {"measurement": "cell death with serine depletion", "setting": "[4]; vemurafenib 2.5 μM", "result": "> 50", "unit": "%"}, {"measurement": "cell death with serine depletion", "setting": "[4]; vemurafenib 5 μM", "result": "> 50", "unit": "%"}, {"measurement": "cell death with serine depleted media", "setting": "[5]", "result": "> 50", "unit": "%"}, {"measurement": "Cytoplasmic FAM129B abundance increase, vemurafenib compared to vehicle treatment", "setting": "[6]", "result": "~6", "unit": "fold"}, {"measurement": "Fold differential, ASNS", "setting": "[7]; protein ASNS", "result": 8, "unit": "fold"}, {"measurement": "Fold differential, CYP51A1", "setting": "[7]; protein CYP51A1", "result": 8, "unit": "fold"}, {"measurement": "Fold differential, DUS2", "setting": "[7]; protein DUS2", "result": 7, "unit": "fold"}, {"measurement": "Fold differential, FAM129B", "setting": "[7]; protein FAM129B", "result": 9, "unit": "fold"}, {"measurement": "Fold differential, KRT19", "setting": "[7]; protein KRT19", "result": 5, "unit": "fold"}, {"measurement": "Fold differential, LARS2", "setting": "[7]; protein LARS2", "result": 6, "unit": "fold"}, {"measurement": "Fold differential, MPHOSPH6", "setting": "[7]; protein MPHOSPH6", "result": 9, "unit": "fold"}, {"measurement": "Fold differential, MRPL13", "setting": "[7]; protein MRPL13", "result": 2, "unit": "fold"}, {"measurement": "Fold differential, PDLIM7", "setting": "[7]; protein PDLIM7", "result": 9, "unit": "fold"}, {"measurement": "Fold differential, PHGDH", "setting": "[7]; protein PHGDH", "result": 2, "unit": "fold"}, {"measurement": "Fold differential, PPP1R7", "setting": "[7]; protein PPP1R7", "result": 8, "unit": "fold"}, {"measurement": "Fold differential, PSAT1", "setting": "[7]; protein PSAT1", "result": 8, "unit": "fold"}, {"measurement": "Fold differential, PSPH", "setting": "[7]; protein PSPH", "result": 5, "unit": "fold"}, {"measurement": "Fold differential, RUVBL1", "setting": "[7]; protein RUVBL1", "result": 3, "unit": "fold"}, {"measurement": "Fold differential, S100A11", "setting": "[7]; protein S100A11", "result": 8, "unit": "fold"}, {"measurement": "Fold differential, SARS2", "setting": "[7]; protein SARS2", "result": 4, "unit": "fold"}, {"measurement": "Fold differential, SARS", "setting": "[7]; protein SARS", "result": 6, "unit": "fold"}, {"measurement": "Fold differential, SBDS", "setting": "[7]; protein SBDS", "result": 10, "unit": "fold"}, {"measurement": "Fold differential, SPATA20", "setting": "[7]; protein SPATA20", "result": 12, "unit": "fold"}, {"measurement": "Fold differential, TXNDC17", "setting": "[7]; protein TXNDC17", "result": 2, "unit": "fold"}, {"measurement": "FAM129B abundance in response to vemurafenib treatments", "setting": "[8]", "result": "decreased"}]}
